Here are results for two compounds from patent US9492422B2, “Therapeutic or prophylactic agent for diabetes” (Toray Industries, Inc., priority 2009, dated 2016).

Counter-ions that a name gives are not always drawn.

Assay type in all cases: in vivo
Series [1] has as its system KKAy mice. The series can be described thus: Casual blood glucose level before and after drug administration in KKAy mice. As to conditions: male KKAy mice; for Casual blood glucose level, After administration: about 18 hours after final administration; for Casual blood glucose level, After administration / Casual blood glucose level, Before administration: mean ± standard error; for Casual blood glucose level, Before administration: baseline, day before start of dosing. From the text: (§1) For the experiment, male KKAy mice (CLEA Japan, Inc.) were used. KKAy mice show obesity and high blood glucose from 7 or 8 weeks old, and are commonly used as model mice for type 2 diabetes. The KKAy mice were purchased when they were 5 weeks old, and, from immediately thereafter, fed with CMF feed (Oriental Yeast Co., Ltd.) for 3 weeks under free food/water intake conditions, before being subjected to the experiment. For continuous subcutaneous administration of a solvent (physiological saline, 6 μL/day) or BPS (1 mg/kg/day, commercially available product from Toray Industries, Inc.), a minipump for sustained release (Alzet micro osmotic pump model 1002, Alzet osmotic pumps company) was subcutaneously placed in each KKAy mouse. The continuous administration of physiological saline or BPS was carried out until the end of the experiment. From 3 days after the placement (beginning of the subcutaneous continuous administration), oral administration of a solvent (0.5% methyl cellulose (MC) solution, 10 mL/kg) or pioglitazone hydrochloride (product synthesized in Toray Industries, Inc.) was started. Pioglitazone hydrochloride was administered as a suspension in 0.5% MC solution. The 0.5% MC solution and pioglitazone hydrochloride were administered for 10 days, during which the administration was carried out once per day in the evening. The mice were divided into the following experimental groups: • (1) Control group (n=8): physiological saline (6 μL/day)+0.5% MC solution (10 mL/kg) • (2) BPS group (n=6): BPS (1 mg/kg/day)+0.5% MC solution (10 mL/kg) • (3) Pioglitazone hydrochloride 3 mg group (n=6): physiological saline (6 μL/day)+pioglitazone hydrochloride (3 mg/kg) • (4) BPS/pioglitazone hydrochloride 3 mg-combined-use group (n=6): BPS (1 mg/kg/day)+pioglitazone hydrochloride (3 mg/kg) • (5) Pioglitazone hydrochloride 30 mg group (n=6): physiological saline (6 μL/day)+pioglitazone hydrochloride (30 mg/kg).
(§2) The body weight and the casual blood glucose level were measured on the day before starting of the continuous administration of physiological saline or BPS (these correspond to the data shown in the “Before administration” columns in Tables 1 and 2). The body weight was measured when 0.5% MC solution or pioglitazone hydrochloride was finally administered, and the casual blood glucose level was measured about 18 hours after the final administration (these correspond to the data shown in the “After administration” columns in Tables 1 and 2). The casual blood glucose level was measured by collecting about 5 μL of blood from the tail vein and subjecting the blood to measurement with a simplified blood glucose meter (Medisense Precision Xceed, ABBOTT JAPAN Co., LTD.).

Series [2] concerns KKAy mice. The experiment in a line: Glucose tolerance test after drug administration in KKAy mice. Particulars: male KKAy mice; for ΔAUC0-120 (area under the Δblood glucose level-time curve, 0 to 120 minutes): oral glucose 1.5 g/kg after fasting, mean ± standard error, in mg·min/dL (unit assumed). The procedure: For the experiment, male KKAy mice (CLEA Japan, Inc.) were used. […] Pioglitazone hydrochloride was administered as a suspension in 0.5% MC solution. […] The continuous administration of physiological saline or BPS was carried out until the end of the experiment. The experimental groups were as follows: • (1) Control group (n=6): physiological saline (6 μL/day)+0.5% MC solution (10 mL/kg) • (2) BPS group (n=5): BPS (1 mg/kg/day)+0.5% MC solution (10 mL/kg) • (3) Pioglitazone hydrochloride 3 mg group (n=5): physiological saline (6 μL/day)+pioglitazone hydrochloride (3 mg/kg) • (4) BPS/pioglitazone hydrochloride 3 mg-combined-use group (n=6): BPS (1 mg/kg/day)+pioglitazone hydrochloride (3 mg/kg) • (5) Pioglitazone hydrochloride 30 mg group (n=6): physiological saline (6 μL/day)+pioglitazone hydrochloride (30 mg/kg). […] The increase in the blood glucose level at each timing relative to the blood glucose level observed immediately before the administration of glucose (0 minute) was defined as Δblood glucose level. The length of time (minutes) after the administration of glucose was plotted along the abscissa and Δblood glucose level (mg/dL) was plotted along the ordinate, to calculate the area under the Δblood glucose level-time curve from 0 minute to 120 minutes (ΔAUC0-120).

Series [3] in a line: Body weight before and after drug administration in KKAy mice. Particulars: male KKAy mice; for Body weight, After administration: at final administration; for Body weight, After administration / Body weight, Before administration: mean ± standard error; for Body weight, Before administration: baseline, day before start of dosing; for Change in body weight compared to the value before drug administration: paired t-test.
Description: as §1, §2

The mark [4] stands for this setting: BPS 1 mg/kg/day s.c. continuous and/or pioglitazone hydrochloride 3 mg/kg p.o. once daily 10 days.
The mark [5] stands for this setting: groups BPS 1 mg/kg/day s.c. continuous and/or pioglitazone hydrochloride 3 mg/kg p.o.
The mark [6] stands for this setting: BPS 1 mg/kg/day s.c. continuous and/or pioglitazone hydrochloride 3 mg/kg p.o. once daily 20 days.
Setting [7] is: pioglitazone hydrochloride 30 mg/kg group.
Where [8] appears, read: pioglitazone hydrochloride 30 mg/kg p.o. once daily 10 days.

For `CC#CCC(C)[C@H](O)/C=C/[C@@H]1[C@H]2c3cccc(CCCC(=O)O)c3O[C@H]2C[C@H]1O` (mixture of isomers) [BPS, beraprost sodium], in series [1] (BPS 1 mg/kg/day s.c. and/or pioglitazone hydrochloride 3 mg/kg p.o., paired t-test), the “Change in casual blood glucose level compared to the value before drug administration” value is given as “no change”. Moreover, the “Casual blood glucose level, After administration” value in series [1] (setting [4]) is recorded as 392.3 ± 28.9 mg/dL. In series [1] (setting [5]), the “Casual blood glucose level, Before administration” value stood at 493.0 ± 35.6 mg/dL. Also, in series [2] (glucose tolerance test, BPS 1 mg/kg/day s.c. and/or pioglitazone hydrochloride 3 mg/kg p.o.), the “Change in ΔAUC0-120 compared to the control group” value is reported as “no change”. In addition, the “ΔAUC0-120 (area under the Δblood glucose level-time curve, 0 to 120 minutes)” value in series [2] (setting [6]) is 18684 ± 3551. In series [3] (setting [4]), the “Body weight, After administration” value was 42.3 ± 1.1 g. Besides, the “Body weight, Before administration” value in series [3] (setting [5]) was 41.2 ± 0.8 g.
In the case of `CCc1ccc(CCOc2ccc(CC3SC(=O)NC3=O)cc2)nc1` (stereo not shown) [Pioglitazone hydrochloride, pioglitazone hydrochloride], the “Casual blood glucose level, After administration” value in series [1] (setting [4]) worked out at 452.8 ± 53.4 mg/dL; in series [1] (setting [8]) it was 271.3 ± 16.9 mg/dL. Also, the “Casual blood glucose level, Before administration” value in series [1] (setting [5]) was 450.3 ± 15.4 mg/dL; in series [1] (setting [7]), 437.7 ± 21.7 mg/dL. Besides, the “ΔAUC0-120 (area under the Δblood glucose level-time curve, 0 to 120 minutes)” value is 23138 ± 4870 in series [2] (setting [6]) and 22461 ± 2157 in series [2] (pioglitazone hydrochloride 30 mg/kg p.o. once daily 20 days). Further, the “Change in body weight compared to the value before drug administration” value in series [3] (BPS 1 mg/kg/day s.c. and/or pioglitazone hydrochloride 3 mg/kg p.o.) and in series [3] (pioglitazone hydrochloride 30 mg/kg p.o.) was “significant increase” throughout. Besides, the “Body weight, After administration” value in series [3] (setting [4]) was 44.2 ± 1.3 g; in series [3] (setting [8]), 46.7 ± 1.3 g. Moreover, the “Body weight, Before administration” value in series [3] (setting [5]) came to 41.7 ± 1.2 g; in series [3] (setting [7]), 42.6 ± 1.1 g.
